# According to patent US20200246322A1, “METHOD FOR TREATING GLUTEN-RELATED ALLERGIES AND I[…] WITH LOPERAMIDE” (priority 2019, published 2020):
# System: gluten intolerance
# Experiment: treating/preventing gluten intolerance with oral loperamide (experience of the inventor)
# Format: in vivo, patient
# Settings: dosage titrated, as long as it is the type of gluten intolerance that responds to loperamide and the proper daily dosage is adhered to
# From the text: The present invention may include a new use of the existing OTC medication (generic: loperamide, brand: Immodium™) to be taken orally by patient suffering from gluten allergy/intolerance symptoms. The Loperamide is taken until the gluten allergy/intolerance symptoms are relieved.
# The amount of loperamide needed to treat/prevent the symptoms of gluten intolerance can be quite a bit higher than the levels that can cause constipation. In that case, a slow increase in dosage may be necessary in order to create a resistance to the constipatory effects. Titration may be necessary to reach the proper dosage to eliminate the symptoms, starting preferably with the standard lowest dosage of loperamide recommended to treat diarrhea (2 mg tablet after the first loose stool, 1 tablet after each subsequent loose stool) and adding 1×2 mg tablet every 6 hours until stool consistency normalizes, at which point the symptoms of gluten intolerance will disappear completely, if it is the type of gluten intolerance that is treatable with loperamide. In the experience of the inventor, the rate of successfully treating/preventing gluten intolerance completely is 100%, as long as it is the type of gluten intolerance that responds to loperamide, and the proper daily dosage is adhered to once it is determined to be effective for the patient.
smiles,measurement,value
CN(C)C(=O)C(CCN1CCC(O)(c2ccc(Cl)cc2)CC1)(c1ccccc1)c1ccccc1 [loperamide],rate of successfully treating/preventing gluten intolerance completely,100%
